In ChEMBL document CHEMBL5143750, “Bisubstrate Inhibitors of Severe Acute Respiratory Syndrome Coronavirus-2 Nsp14 Methyltransferase” (ACS Med Chem Lett, 2022):

tested on: SARS-CoV-2; experiment: Antiviral activity against SARS-CoV-2 infected in human A549 cells overexpressing ACE2 and TMPRSS2 assessed as reduction in viral growth incubated for 48 hrs by DAPI staining based immunofluorescence assay; assay type: functional, organism-based; details: Severe acute respiratory syndrome coronavirus 2, A549, 48 h

Row | SMILES | EC50
1 | CC(C)C(=O)O[C@@H]1[C@H](OC(=O)C(C)C)[C@@H](CNS(=O)(=O)c2ccc3ccccc3c2)O[C@H]1n1cnc2c(N)ncnc21 | 97 µM
2 | CC(=O)Nc1ncnc2c1ncn2[C@@H]1O[C@H](CNS(=O)(=O)c2ccc3ccccc3c2)[C@@H](OC(C)=O)[C@H]1OC(C)=O | 61 µM
3 | Nc1ncnn2c([C@@H]3O[C@H](CNS(=O)(=O)c4ccc5ccccc5c4)[C@@H](O)[C@H]3O)ccc12 | 0.72 µM
4 | CC(=O)O[C@@H]1[C@H](OC(C)=O)[C@@H](CNS(=O)(=O)c2ccc3ccccc3c2)O[C@H]1c1ccc2c(N)ncnn12 | 4.3 µM
5 | CC(=O)O[C@@H]1[C@H](OC(C)=O)[C@@H](CNS(=O)(=O)c2ccc3ccccc3c2)O[C@H]1n1cnc2c(N)ncnc21 | 53 µM

tested on: SARS-CoV-2; experiment: Antiviral activity against SARS-CoV-2 infected in human A549 cells overexpressing ACE2 and TMPRSS2 assessed as inhibition of viral growth at 50 uM incubated for 48 hrs by DAPI staining based immunofluorescence assay; assay type: functional; details: Severe acute respiratory syndrome coronavirus 2, A549

Row | SMILES | inhibition at 50 µM
6 | Nc1ncnc2c1ncn2[C@@H]1O[C@H](CNCc2ccc3ccccc3c2)[C@@H](O)[C@H]1O | < 15%
7 | Nc1ncnc2c1ncn2[C@@H]1O[C@H](CNC(=O)c2ccc3ccccc3c2)[C@@H](O)[C@H]1O | < 15%
8 | Nc1ncnc2c1ncn2[C@@H]1O[C@H](CNS(=O)(=O)c2ccc3cccnc3c2)[C@@H](O)[C@H]1O | < 15%
9 | CC(=O)Nc1ncnc2c1ncn2[C@@H]1O[C@H](CNS(=O)(=O)c2ccc3ccccc3c2)[C@@H](O)[C@H]1O | < 15%
10 | Nc1ncnc2c1ncn2[C@@H]1O[C@H](CNS(=O)(=O)c2ccc3ccccc3c2)[C@@H](O)[C@H]1O | < 15%
11 | Nc1ncnc2c1ncn2[C@@H]1O[C@H](CNS(=O)(=O)c2ccc3nc(Cl)ccc3c2)[C@@H](O)[C@H]1O | < 15%
12 | Nc1ncnc2c1ncn2[C@@H]1O[C@H](C[C@@H](N)CC[C@H](N)C(=O)O)[C@@H](O)[C@H]1O [SINEFUNGIN] | < 15%

tested on: not listed separately; experiment: Therapeutic index, ratio of CC50 for cytotoxicity against human A549 cells overexpressing ACE2 and TMPRSS2 to EC50 for antiviral activity against SARS-CoV-2 infected in human A549 cells overexpressing ACE2 and TMPRSS2 assessed as reduction in viral growth; assay type: toxicity, cell-based; details: read-out: Ratio CC50/EC50

Row | SMILES | selectivity ratio
13 | Nc1ncnn2c([C@@H]3O[C@H](CNS(=O)(=O)c4ccc5ccccc5c4)[C@@H](O)[C@H]3O)ccc12 | > 139
